The values below are quoted from earlier work in PubChem BioAssay AID1259410 (Chemical Carcinogenesis Research Information System (CCRIS), 2018).

The subject of this data set is rodent tumor promotion studies, tumor incidence. Nature of the data set: CCRIS tumor promotion studies.

On to `CCC1(c2ccccc2)C(=O)N=C(O)NC1=O` (centres undefined), for which the outcome by setting is: (Carcinogen: 2-(ACETYLAMINO)FLUORINE, Doses [Carcinogen]: 0.02% IN DIET FOR 4 WK, Doses [Promoter]: 0.05% IN DIET FOR 32 WK, Route [Carcinogen]: ORAL, Route [Promoter]: ORAL, Species: RAT, Strain/Sex: F344/MALE) “liver: hepatocellular carcinoma”; (Carcinogen: DIETHYLNITROSAMINE, 55-18-5, 2-ACETYLAMINOFLUORENE, 6292-55-3, CARBON TETRACHLORIDE, 56-23-5, Carcinogen: DIETHYLNITROSAMINE, 55-18-5, 2-ACETYLAMINOFLUORENE, 6292-55-3, CARBON TETRACHLORIDE, 56-23-5, Doses [Carcinogen]: 200 MG/KG ONCE FOLLOWED 2 WK LATER BY 0.03% 2-ACETYLAMINOFLUORENE IN DIET FOR 2 WK PLUS 2 ML/KG CARBON TETRACHLORIDE IN, Doses [Promoter]: 0.05% IN DIET STARTING 1 WK POST 2-ACETYLAMINOFLUORENE AND CONTINUED FOR 6 MO (STUDY DURATION: 7 MO), Route [Carcinogen]: INTRAPERITONEAL, ORAL, INTRAGASTRIC, Route [Carcinogen]: INTRAPERITONEAL, ORAL, INTRAGASTRIC, Route [Promoter]: ORAL, Species: RAT, Strain/Sex: WISTAR/MALE) “liver: hepatocellular carcinoma”; (Carcinogen: DIETHYLNITROSAMINE, 55-18-5, Doses [Carcinogen]: 2.5, 10, 25, 50 UG/G IN SALINE ONCE ON DAY 15 OF AGE, Doses [Promoter]: 0, 500 PPM IN DRINKING WATER FROM 28 DAYS OF AGE TO 12, 24, 40 WK POST-WEANING (STUDY DURATION: 42 WK), Route [Carcinogen]: INTRAPERITONEAL, Route [Promoter]: ORAL, Species: MOUSE, Strain/Sex: BALB/MALE) “liver: adenoma”; (Carcinogen: DIETHYLNITROSAMINE, 55-18-5, N-METHYLNITROSOUREA, 684-93-5, DIHYDROXY-DI-N- PROPYLNITROSAMINE, 53604-64-6, Carcinogen: DIETHYLNITROSAMINE, 55-18-5, N-METHYLNITROSOUREA, 684-93-5, DIHYDROXY-DI-N- PROPYLNITROSAMINE, 53604-64-6, Doses [Carcinogen]: 100 MG/KG IN SALINE AT BEGINNING OF STUDY, 20 MG/KG IN CITRATE BUFFERED SOLUTION ON D 2, 5, 8 AND 11, 0.1% IN DRINKING, Doses [Carcinogen]: 100 MG/KG IN SALINE AT BEGINNING OF STUDY, 20 MG/KG IN CITRATE BUFFERED SOLUTION ON D 2, 5, 8 AND 11, 0.1% IN DRINKING, Doses [Promoter]: 0, 500 PPM IN DIET BEGINNING POST SEQUENTIAL CARCINOGEN TREATMENT AND CONTINUING FOR DURATION OF STUDY (STUDY DURATION:, Route [Carcinogen]: IP, IP, ORAL, Route [Carcinogen]: IP, IP, ORAL, Route [Promoter]: ORAL, Species: RAT, Strain/Sex: F344/MALE) “thyroid: adenoma”; (Carcinogen: DIETHYLNITROSAMINE, 55-18-5, N-METHYLNITROSOUREA, 684-93-5, DIHYDROXY-DI-N- PROPYLNITROSAMINE, 53609-64-6, Carcinogen: DIETHYLNITROSAMINE, 55-18-5, N-METHYLNITROSOUREA, 684-93-5, DIHYDROXY-DI-N- PROPYLNITROSAMINE, 53609-64-6, Doses [Carcinogen]: 100 MG/KG IN SALINE AT BEGINNING OF STUDY, 20 MG/KG IN CITRATE BUFFERED SOLUTION ON D 2, 5, 8 AND 11, 0.1% IN DRINKING, Doses [Carcinogen]: 100 MG/KG IN SALINE AT BEGINNING OF STUDY, 20 MG/KG IN CITRATE BUFFERED SOLUTION ON D 2, 5, 8 AND 11, 0.1% IN DRINKING, Doses [Promoter]: 0, 500 PPM IN DIET BEGINNING POST SEQUENTIAL CARCINOGEN TREATMENT AND CONTINUING FOR DURATION OF STUDY (STUDY DURATION:, Route [Carcinogen]: IP, IP, ORAL, Route [Carcinogen]: IP, IP, ORAL, Route [Promoter]: ORAL, Species: RAT, Strain/Sex: F344/MALE) “thyroid: adenoma”; (Carcinogen: ETHYLNITROSOUREA, 759-73-9, Doses [Carcinogen]: 5 MG/KG ONCE AT 15 D OF AGE, Doses [Promoter]: 0, 500 PPM IN DRINKING WATER BEGINNING AT 5 WK OF AGE AND CONTINUING TO 51 WK OF AGE (STUDY DURATION: 52 WK), Route [Carcinogen]: INTRAPERITONEAL, Route [Promoter]: ORAL, Species: MOUSE, Strain/Sex: CD-1/FEMALE) “liver: adenoma”. In addition, the outcome is, setting by setting: (Carcinogen: ETHYLNITROSOUREA, 759-73-9, Doses [Carcinogen]: 5 MG/KG ONCE AT 15 D OF AGE, Doses [Promoter]: 0, 500 PPM IN DRINKING WATER BEGINNING AT 5 WK OF AGE AND CONTINUING TO 51 WK OF AGE (STUDY DURATION: 52 WK), Route [Carcinogen]: INTRAPERITONEAL, Route [Promoter]: ORAL, Species: MOUSE, Strain/Sex: CD-1/MALE) “liver: carcinoma”; (Carcinogen: ETHYLNITROSOUREA, 759-73-9, Doses [Carcinogen]: 20 MG/KG ONCE AT 15 D OF AGE, Doses [Promoter]: 0, 500 PPM IN DRINKING WATER BEGINNING AT 5 WK OF AGE AND CONTINUING TO 51 WK OF AGE (STUDY DURATION: 52 WK), Route [Carcinogen]: INTRAPERITONEAL, Route [Promoter]: ORAL, Species: MOUSE, Strain/Sex: CD-1/FEMALE) “liver: adenoma, carcinoma”; (Carcinogen: ETHYLNITROSOUREA, 759-73-9, Doses [Carcinogen]: 20 MG/KG ONCE AT 15 D OF AGE, Doses [Promoter]: 0, 500 PPM IN DRINKING WATER BEGINNING AT 5 WK OF AGE AND CONTINUING TO 51 WK OF AGE (STUDY DURATION: 52 WK), Route [Carcinogen]: INTRAPERITONEAL, Route [Promoter]: ORAL, Species: MOUSE, Strain/Sex: CD-1/MALE) “liver: carcinoma”; (Carcinogen: N-BIS(2-HYDROXYPROPYL)NITROSAMINE, 53609-64-6, Doses [Carcinogen]: 280 MG/100 G/BW ONCE, Doses [Promoter]: 0, 0.05% IN DRINKING WATER FOR 25 WK (STUDY DURATION: 26 WK), Route [Carcinogen]: SUBCUTANEOUS, Route [Promoter]: ORAL, Species: RAT, Strain/Sex: F344/MALE) “thyroid: neoplasm”; (Carcinogen: N-METHYL-N-NITROSOUREA, 684-93-5, Doses [Carcinogen]: 30 MG/KG BW ONCE, Doses [Promoter]: 0, 0.5% IN DRINKING WATER FOR DURATION OF STUDY BEGINNING POST CARCINOGEN DOSE(STUDY DURATION: 14 MO), Route [Carcinogen]: INTRAVENOUS, Route [Promoter]: ORAL, Species: RAT, Strain/Sex: LOBUND-WISTAR/MALE) “lung: carcinoma, prostate/seminal vesicles: tumor”.
As for `Cn1cc[nH]c1=S`, the outcome (Carcinogen: Acrylonitrile, 79-06-1, Doses [Carcinogen]: 2-3 mg/kg in drinking water, study duration 2 mo, Doses [Promoter]: 100 mg/l in drinking water, study duration 2 mo, Route [Carcinogen]: Oral, Route [Promoter]: Oral, Species: Mouse, Strain/Sex: CD1/Female (20,?)/(30/ ?)) is “thyroid; no tumors”.
`CCCCN(CCCC)N=O`: the outcome (Carcinogen: DIETHYLNITROSAMINE, 55-18-5, N-METHYLNITROSOUREA, 684-93-3, DIHYDROXY-DI-N- PROPYLNITROSAMINE, 53609-64-6, Carcinogen: DIETHYLNITROSAMINE, 55-18-5, N-METHYLNITROSOUREA, 684-93-3, DIHYDROXY-DI-N- PROPYLNITROSAMINE, 53609-64-6, Doses [Carcinogen]: 100 MG/KG IN SALINE AT BEGINNING OF STUDY, 20 MG/KG IN CITRATE BUFFERED SOLUTION ON D 2, 5, 8 AND 11, 0.1% IN DRINKING, Doses [Carcinogen]: 100 MG/KG IN SALINE AT BEGINNING OF STUDY, 20 MG/KG IN CITRATE BUFFERED SOLUTION ON D 2, 5, 8 AND 11, 0.1% IN DRINKING, Doses [Promoter]: 0, 50 PPM IN DRINKING WATER BEGINNING POST SEQUENTIAL CARCINOGEN TREATMENT AND CONTINUING FOR DURATION OF STUDY (STUDY D, Route [Carcinogen]: IP, IP, ORAL, Route [Carcinogen]: IP, IP, ORAL, Route [Promoter]: ORAL, Species: RAT, Strain/Sex: F344/MALE) is listed as “esophagus: papilloma, squamous cell carcinoma; tongue: papilloma” and the outcome (Carcinogen: DIETHYLNITROSAMINE, 55-18-5, N-METHYLNITROSOUREA, 684-93-5, DIHYDROXY-DI-N- PROPYLNITROSAMINE, 53609-64-6, Carcinogen: DIETHYLNITROSAMINE, 55-18-5, N-METHYLNITROSOUREA, 684-93-5, DIHYDROXY-DI-N- PROPYLNITROSAMINE, 53609-64-6, Doses [Carcinogen]: 100 MG/KG IN SALINE AT BEGINNING OF STUDY, 20 MG/KG IN CITRATE BUFFERED SOLUTION ON D 2, 5, 8 AND 11, 0.1% IN DRINKING, Doses [Carcinogen]: 100 MG/KG IN SALINE AT BEGINNING OF STUDY, 20 MG/KG IN CITRATE BUFFERED SOLUTION ON D 2, 5, 8 AND 11, 0.1% IN DRINKING, Doses [Promoter]: 0, 50 PPM IN DRINKING WATER BEGINNING POST SEQUENTIAL CARCINOGEN TREATMENT AND CONTINUING FOR DURATION OF STUDY (STUDY D, Route [Carcinogen]: IP, IP, ORAL, Route [Carcinogen]: IP, IP, ORAL, Route [Promoter]: ORAL, Species: RAT, Strain/Sex: F344/MALE) is listed as “lung: adenoma; esophagus: papilloma”.
